Data set [1] is described as follows: water solubility of crystal modifications. The data set is classed as physicochemical. To be noted: over relevant temperature ranges; compared with modification A.
The nature of data set [2]: thermodynamic stability (DSC, solubility tests and other experiments). The data set is classed as physicochemical. As to conditions: compared with modification A. The method, then:
Characteristic for modification B is also the thermogram in DSC (differential scanning calorimetry, see FIG. 5). It has an endothermic peak in the range from 120° C. to 128° C. depending on purity. For example, crystal modification B in pure form has a peak temperature of 128° C. and an endothermic signal around 90 J/g. This thermogram is characteristically different from the thermogram of the modification A (see FIG. 6), which has an endothermic peak at about 112° C. and an endothermic signal of 76 J/g. The measurement was carried out on a Metier Toledo 820 DSC in a closed pan with a heating rate of 10 K/minute. The typical sample quantity is about 5 mg.

The structures appear in SMILES notation.

For the compound `CC(C)C1C2CCC1c1c(NC(=O)c3cn(C)nc3C(F)F)cccc12` (stereo not drawn) [modification B, syn-3-difluoromethyl-1-methyl-1H-pyrazole-4-carboxylic acid (9-isopropyl-1,2,3,4-tetrahydro-1,4-methano-naphthalen-5-yl)-amide], the water solubility result in data set [1] is listed as “lower than the water solubility of modification A”. Moreover, in data set [2], the thermodynamic stability result is recorded as “substantially better thermodynamic stability than the modification A”.

The values above are taken from patent publication US8436037B2, “Process for the production of amides” (Syngenta Limited, priority 2005, dated 2013).
